Measurements from article PMC9090415, “Discovery of small molecule inhibitors of Plasmodium falciparum apicoplast DNA polymerase” (Journal of Enzyme Inhibition and Medicinal Chemistry, 2022).

Biological target: P. falciparum apicoplast DNA polymerase (Pf-apPOL) (Plasmodium falciparum, UniProt Q8ILY1)
Test: Fluorescence-based high-throughput DNA polymerase assay (molecular beacon), primary screen and dose-response
Type: biochemical
Details: for DNA Pol: unit not given, 90 min, 10 µM
Protocol: The HT assay employs a molecular beacon, a stem-loop DNA template with a Cy3 dye and the Black Hole Quencher on the 3′ and 5′ ends of the DNA, respectively. Pf-apPOL concentration is based on a calculated absorptivity of ε280 = 56750 M^−1 cm^−1. Reactions were carried out at 25 °C, using Corning 3575 […] (well-volume, 20 µL). Assays testing for compound inhibition composed of reaction buffer (pH 7.9 in 50 mM potassium acetate, 20 mM Tris-acetate and 10 mM magnesium acetate), Pf-apPOL (20 nM), DNA substrate (20 nM), dNTPs (6 µM), and compound (10 µM in DMSO). The DNA and nucleotide substrates (dNTPs) were at concentrations of 20 nM and 6 µM, respectively, in the assay. Pf-apPOL was incubated in the reaction buffer with dNTPs and the compound of interest (10 µM, in the assay) at 25 °C for 10 min. The DNA substrate was then added and the reaction was allowed to proceed for 90 min at 25 °C.
Each assay plate contained 16 negative controls (no Pf-apPOL, DMSO present) and 16 positive controls (Pf-apPOL present, no DMSO). The fluorescence of each well was determined using a BioTek Synergy Neo fluorescence plate reader using excitation and emission wavelengths of 555 and 570 nm, respectively.
In the above, Min is the average of fluorescence emission of the negative controls (substrate only), Max the average fluorescence emission from the positive controls (enzyme + substrate), and Test the emission from the assays in the presence of compounds (enzyme + compound + substrates). […] […] The IC50 of each compound was determined using Equation (2): (2) IC50= Vmax/(1+ (I/IC50)^n)
In the above, n measures cooperativity, with n > 1 indicating synergistic binding of more than a single molecule of the compound.
To identify apPOL inhibitors we utilised our previously developed high-throughput DNA polymerase assay. The HT assay is based on a molecular beacon DNA template that forms a stem-loop with a Cy3 dye and the Black Hole Quencher on the 3′ and 5′ ends of the DNA, respectively. DNA polymerase activity extends an annealed primer through the stem region, displacing the fluorophore from the quencher, thereby increasing its fluorescence (Figure 1(A)). The assay accurately recapitulates the kinetic behaviour of apPOL, as measured through more conventional low-throughput gel-based assays. The Z′ factor for the assay described here was 0.9 across all plates (data not shown).
Figure 1. High-throughput screening. (A) The fluorescent-based DNA polymerase assay used to screen the compound libraries. The DNA template strand is a hairpin loop with a primer annealed to the loop. The 3’ end of the primer is 11 bases away from the 6 bp duplex. Strand displacement activity of the DNA polymerase separates the Cy3 dye from the Black hole quencher leading to an increase in fluorescent signal. (B) The high-throughput assay workflow. The DNA polymerase is incubated with […] compound for 10 min prior to addition of the hairpin substrate. The reaction is quenched at 3 different time points and the fluorescent signal is measured and % inhibition is determined using the provided equation.

Sequence of P. falciparum apicoplast DNA polymerase (Pf-apPOL) (Q8ILY1 entry or part of it): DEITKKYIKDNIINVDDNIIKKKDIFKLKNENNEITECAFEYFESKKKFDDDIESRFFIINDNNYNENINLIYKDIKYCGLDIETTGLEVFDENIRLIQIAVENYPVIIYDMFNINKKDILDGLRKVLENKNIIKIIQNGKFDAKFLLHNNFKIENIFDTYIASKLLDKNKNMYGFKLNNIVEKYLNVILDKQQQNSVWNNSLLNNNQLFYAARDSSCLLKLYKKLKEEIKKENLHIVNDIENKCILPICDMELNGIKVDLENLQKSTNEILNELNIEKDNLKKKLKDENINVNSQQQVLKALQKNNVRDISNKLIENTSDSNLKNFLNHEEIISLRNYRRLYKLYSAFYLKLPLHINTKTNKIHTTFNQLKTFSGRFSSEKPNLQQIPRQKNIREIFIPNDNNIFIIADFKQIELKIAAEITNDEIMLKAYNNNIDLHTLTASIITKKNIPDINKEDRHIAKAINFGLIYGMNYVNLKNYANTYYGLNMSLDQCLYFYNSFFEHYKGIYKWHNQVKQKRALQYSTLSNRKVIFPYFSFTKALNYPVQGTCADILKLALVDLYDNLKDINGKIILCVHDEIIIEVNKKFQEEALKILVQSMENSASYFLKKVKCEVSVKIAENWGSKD

SMILES: O=C1N/C(=N/c2ccccc2Cl)S/C1=C/c1ccc([N+](=O)[O-])o1 [KU0054524]
- % inhibition Apo pol 10' (DRC-1, concentration 2.5): 7.564%
- % inhibition Apo pol 10' (DRC-1, concentration 5): 28.3365%
- % inhibition Apo pol 10' (DRC-1, concentration 10): 42.7276%
- % inhibition Apo pol 10' (DRC-1, concentration 20): 56.2802%
- % inhibition Apo pol 10' (DRC-1, concentration 40): 80.0033%
- % inhibition Apo pol 10' (DRC-1, concentration 80): 85.9961%
- % inhibition Apol 90' (DRC-1, 90', concentration 2.5): 2.857%
- % inhibition Apol 90' (DRC-1, 90', concentration 5): 16.2843%
- % inhibition Apol 90' (DRC-1, 90', concentration 10): 26.4398%
- % inhibition Apol 90' (DRC-1, 90', concentration 20): 38.2807%
- % inhibition Apol 90' (DRC-1, 90', concentration 40): 70.6237%
- % inhibition Apol 90' (DRC-1, 90', concentration 80): 84.7542%
- % inhibition apPOL 180' (DRC-1, 180', concentration 2.5): -2.619%
- % inhibition apPOL 180' (DRC-1, 180', concentration 5): 9.438%
- % inhibition apPOL 180' (DRC-1, 180', concentration 10): 15.4402%
- % inhibition apPOL 180' (DRC-1, 180', concentration 20): 23.638%
- % inhibition apPOL 180' (DRC-1, 180', concentration 40): 57.9424%
- % inhibition apPOL 180' (DRC-1, 180', concentration 80): 81.189%
- % inhibition Apo pol 5' (DRC-2, 5', concentration 10 (unit not given)): 42%
- % inhibition Apol 40' (DRC-2, 40', concentration 40 (unit not given)): 58%
- % inhibition ApPOL 90' (DRC-2, 90', concentration 10 (unit not given)): 42%
- % inhibition apPOL 180' (DRC-2, 180', concentration 10 (unit not given)): 31%
- % inhibition apPOL 180' (DRC-2, 180', concentration 20 (unit not given)): 58%
- % inhibition Apo pol 5' (DRC-2, 5', concentration 2.5): 17%
- % inhibition Apo pol 5' (DRC-2, 5', concentration 5): 22%
- % inhibition Apo pol 5' (DRC-2, 5', concentration 10): 42%
- % inhibition Apo pol 5' (DRC-2, 5', concentration 20): 46%
- % inhibition Apo pol 5' (DRC-2, 5', concentration 40): 25%
- % inhibition Apo pol 5' (DRC-2, 5', concentration 80): 31%
- % inhibition Apo pol 5' (DRC-2, 5', concentration 80 (unit not given)): 31%
- % inhibition Apol 40' (DRC-2, 40', concentration 2.5): 14%
- % inhibition Apol 40' (DRC-2, 40', concentration 5): 21%
- % inhibition Apol 40' (DRC-2, 40', concentration 10): 45%
- % inhibition Apol 40' (DRC-2, 40', concentration 20): 62%
- % inhibition Apol 40' (DRC-2, 40', concentration 40): 58%
- % inhibition Apol 40' (DRC-2, 40', concentration 80): 61%
- % inhibition ApPOL 90' (DRC-2, 90', concentration 2.5): 11%
- % inhibition ApPOL 90' (DRC-2, 90', concentration 5): 16%
- % inhibition ApPOL 90' (DRC-2, 90', concentration 10): 42%
- % inhibition ApPOL 90' (DRC-2, 90', concentration 20): 63%
- % inhibition ApPOL 90' (DRC-2, 90', concentration 40): 65%
- % inhibition ApPOL 90' (DRC-2, 90', concentration 80): 68%
- % inhibition apPOL 180' (DRC-2, 180', concentration 2.5): 7%
- % inhibition apPOL 180' (DRC-2, 180', concentration 5): 8%
- % inhibition apPOL 180' (DRC-2, 180', concentration 10): 31%
- % inhibition apPOL 180' (DRC-2, 180', concentration 20): 58%
- % inhibition apPOL 180' (DRC-2, 180', concentration 40): 67%
- % inhibition apPOL 180' (DRC-2, 180', concentration 80): 73%
- DNA Pol (primary screen value of the 186 hits): 44
- DNA Pol (primary screen value, head "DNA Pol"): 44

SMILES: COc1ccc(S(=O)(=O)/N=C2\NC(=O)/C(=C3\C(=O)Nc4ccc([N+](=O)[O-])cc43)S2)cc1 [KU0054985]
- DNA Pol ('DNA Pol' of the 186 hits list (primary screen result)): 41
- % inhibition Apo pol 10' (DRC-1, concentration 2.5): 18.5864%
- % inhibition Apo pol 10' (DRC-1, concentration 5): 36.9179%
- % inhibition Apo pol 10' (DRC-1, concentration 10): 67.7559%
- % inhibition Apo pol 10' (DRC-1, concentration 20): 96.4602%
- % inhibition Apo pol 10' (DRC-1, concentration 40): 99.5336%
- % inhibition Apo pol 10' (DRC-1, concentration 80): 99.5405%
- % inhibition Apol 90' (DRC-1, 90', concentration 2.5): 1.843%
- % inhibition Apol 90' (DRC-1, 90', concentration 5): 6.911%
- % inhibition Apol 90' (DRC-1, 90', concentration 10): 25.9736%
- % inhibition Apol 90' (DRC-1, 90', concentration 20): 66.8469%
- % inhibition Apol 90' (DRC-1, 90', concentration 40): 95.4915%
- % inhibition Apol 90' (DRC-1, 90', concentration 80): 99.0869%
- % inhibition apPOL 180' (DRC-1, 180', concentration 2.5): -5.136%
- % inhibition apPOL 180' (DRC-1, 180', concentration 5): -1.681%
- % inhibition apPOL 180' (DRC-1, 180', concentration 10): 15.3394%
- % inhibition apPOL 180' (DRC-1, 180', concentration 20): 51.5386%
- % inhibition apPOL 180' (DRC-1, 180', concentration 40): 94.1836%
- % inhibition apPOL 180' (DRC-1, 180', concentration 80): 99.3305%
- % inhibition Apo pol 5' (DRC-2, 5', concentration 2.5): 4%
- % inhibition Apo pol 5' (DRC-2, 5', concentration 5): 9%
- % inhibition Apo pol 5' (DRC-2, 5', concentration 10): 30%
- % inhibition Apo pol 5' (DRC-2, 5', concentration 20): 52%
- % inhibition Apo pol 5' (DRC-2, 5', concentration 40): 63%
- % inhibition Apo pol 5' (DRC-2, 5', concentration 80): 67%
- % inhibition Apol 40' (DRC-2, 40', concentration 2.5): 3.68%
- % inhibition Apol 40' (DRC-2, 40', concentration 5): 6%
- % inhibition Apol 40' (DRC-2, 40', concentration 10): 20%
- % inhibition Apol 40' (DRC-2, 40', concentration 20): 38%
- % inhibition Apol 40' (DRC-2, 40', concentration 40): 74%
- % inhibition Apol 40' (DRC-2, 40', concentration 80): 82%
- % inhibition ApPOL 90' (DRC-2, 90', concentration 2.5): 3.52%
- % inhibition ApPOL 90' (DRC-2, 90', concentration 5): 5%
- % inhibition ApPOL 90' (DRC-2, 90', concentration 10): 18%
- % inhibition ApPOL 90' (DRC-2, 90', concentration 20): 33%
- % inhibition ApPOL 90' (DRC-2, 90', concentration 40): 75%
- % inhibition ApPOL 90' (DRC-2, 90', concentration 80): 85%
- % inhibition apPOL 180' (DRC-2, 180', concentration 2.5): 4.38%
- % inhibition apPOL 180' (DRC-2, 180', concentration 5): 2.14%
- % inhibition apPOL 180' (DRC-2, 180', concentration 10): 13%
- % inhibition apPOL 180' (DRC-2, 180', concentration 20): 26%
- % inhibition apPOL 180' (DRC-2, 180', concentration 40): 72%
- % inhibition apPOL 180' (DRC-2, 180', concentration 80): 88%
- DNA Pol (primary screen value of the library well): 41
